Data published in ChEMBL document CHEMBL1138430, “Novel tetrahydroisoquinolines are histamine H3 antagonists and serotonin reuptake inhibitors” (Bioorg Med Chem Lett, 2007).
The source made the active and inactive calls.

Assays:
[1] = biological target: T1, Type-1 angiotensin II receptor (Homo sapiens) (UniProt P30556); assay: Binding affinity at AT1 receptor at 1 uM
T1 sequence (whole entry): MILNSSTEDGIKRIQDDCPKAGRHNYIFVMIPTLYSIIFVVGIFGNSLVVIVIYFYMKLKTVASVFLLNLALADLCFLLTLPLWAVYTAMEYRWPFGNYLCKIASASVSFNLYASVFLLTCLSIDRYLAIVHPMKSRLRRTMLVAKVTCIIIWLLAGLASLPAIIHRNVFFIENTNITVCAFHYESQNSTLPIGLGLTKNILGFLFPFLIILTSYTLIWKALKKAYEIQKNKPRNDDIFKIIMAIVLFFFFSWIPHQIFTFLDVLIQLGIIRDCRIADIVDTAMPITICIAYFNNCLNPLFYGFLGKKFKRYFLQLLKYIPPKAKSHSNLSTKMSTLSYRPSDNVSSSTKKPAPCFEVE

[2] = biological target: T2, Substance-K receptor (Homo sapiens) (UniProt P21452); assay: Binding affinity at NK2 receptor at 1 uM
T2 sequence (whole entry): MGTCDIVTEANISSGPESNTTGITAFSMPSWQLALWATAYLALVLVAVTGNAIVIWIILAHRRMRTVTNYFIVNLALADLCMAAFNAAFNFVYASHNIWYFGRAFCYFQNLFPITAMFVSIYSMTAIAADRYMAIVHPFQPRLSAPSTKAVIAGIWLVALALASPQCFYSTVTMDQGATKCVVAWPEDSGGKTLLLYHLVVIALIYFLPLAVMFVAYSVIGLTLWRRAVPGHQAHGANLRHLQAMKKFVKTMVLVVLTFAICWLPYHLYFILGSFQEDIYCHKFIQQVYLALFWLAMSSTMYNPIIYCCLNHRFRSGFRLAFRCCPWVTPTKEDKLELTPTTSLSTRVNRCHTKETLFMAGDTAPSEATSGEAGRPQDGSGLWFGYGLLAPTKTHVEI

[3] = biological target: T3, Galanin receptor type 2 (Homo sapiens) (UniProt O43603); assay: Binding affinity at galanin 2 receptor at 1 uM
T3 sequence (whole entry): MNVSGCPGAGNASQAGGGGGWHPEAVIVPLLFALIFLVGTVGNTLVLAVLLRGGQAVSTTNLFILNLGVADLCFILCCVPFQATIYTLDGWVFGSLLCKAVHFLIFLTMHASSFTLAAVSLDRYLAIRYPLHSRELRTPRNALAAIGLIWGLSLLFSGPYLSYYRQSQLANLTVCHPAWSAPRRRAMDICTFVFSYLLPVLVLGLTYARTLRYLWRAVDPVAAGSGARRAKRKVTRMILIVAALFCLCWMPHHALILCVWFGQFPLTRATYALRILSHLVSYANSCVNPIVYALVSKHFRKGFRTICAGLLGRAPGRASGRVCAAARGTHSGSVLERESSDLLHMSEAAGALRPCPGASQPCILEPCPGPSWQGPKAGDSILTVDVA

[4] = biological target: T4, B2 bradykinin receptor (Homo sapiens) (UniProt P30411); assay: Binding affinity at bradykinin B2 receptor at 1 uM
T4 sequence (whole entry): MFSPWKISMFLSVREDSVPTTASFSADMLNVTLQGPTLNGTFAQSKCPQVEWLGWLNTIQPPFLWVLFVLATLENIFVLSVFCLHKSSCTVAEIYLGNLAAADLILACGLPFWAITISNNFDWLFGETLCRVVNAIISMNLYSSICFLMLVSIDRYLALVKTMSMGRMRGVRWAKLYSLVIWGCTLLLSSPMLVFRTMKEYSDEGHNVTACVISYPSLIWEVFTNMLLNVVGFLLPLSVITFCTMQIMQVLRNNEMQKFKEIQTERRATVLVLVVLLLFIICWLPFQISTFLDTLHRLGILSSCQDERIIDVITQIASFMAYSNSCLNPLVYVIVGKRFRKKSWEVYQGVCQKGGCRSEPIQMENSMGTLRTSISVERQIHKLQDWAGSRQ

[5] = biological target: Neurotensin receptor type 1 (Homo sapiens) (UniProt P30989); assay: Binding affinity at NT1 receptor at 1 uM
Sequence of Neurotensin receptor type 1 (Homo sapiens) (P30989 whole entry): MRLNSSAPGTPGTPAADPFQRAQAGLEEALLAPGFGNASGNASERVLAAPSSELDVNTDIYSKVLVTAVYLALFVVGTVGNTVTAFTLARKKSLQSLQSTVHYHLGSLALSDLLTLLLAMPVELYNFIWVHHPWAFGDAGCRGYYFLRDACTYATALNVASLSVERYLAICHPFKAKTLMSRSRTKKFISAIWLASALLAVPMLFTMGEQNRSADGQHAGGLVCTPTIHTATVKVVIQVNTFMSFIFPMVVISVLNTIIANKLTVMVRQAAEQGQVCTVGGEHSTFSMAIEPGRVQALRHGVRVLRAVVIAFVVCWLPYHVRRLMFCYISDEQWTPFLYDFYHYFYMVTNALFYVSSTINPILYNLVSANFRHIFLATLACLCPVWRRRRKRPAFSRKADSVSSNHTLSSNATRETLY

[6] = biological target: 5-hydroxytryptamine receptor 1B (Homo sapiens) (UniProt P28222); assay: Binding affinity at 5HT1B receptor at 1 uM
Sequence of 5-hydroxytryptamine receptor 1B (Homo sapiens) (P28222 whole entry): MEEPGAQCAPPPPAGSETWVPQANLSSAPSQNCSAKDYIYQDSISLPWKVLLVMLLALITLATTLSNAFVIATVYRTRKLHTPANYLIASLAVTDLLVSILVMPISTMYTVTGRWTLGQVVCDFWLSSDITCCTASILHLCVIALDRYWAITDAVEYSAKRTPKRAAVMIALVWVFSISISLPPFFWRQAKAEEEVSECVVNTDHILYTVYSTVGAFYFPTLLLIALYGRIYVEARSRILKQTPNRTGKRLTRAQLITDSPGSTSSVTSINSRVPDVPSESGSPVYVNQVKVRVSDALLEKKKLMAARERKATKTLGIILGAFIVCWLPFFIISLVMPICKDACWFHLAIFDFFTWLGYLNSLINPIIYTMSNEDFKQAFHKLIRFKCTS

[7] = biological target: Kappa-type opioid receptor (Homo sapiens) (UniProt P41145); assay: Binding affinity at KOP receptor at 1 uM
Sequence of Kappa-type opioid receptor (Homo sapiens) (P41145 whole entry): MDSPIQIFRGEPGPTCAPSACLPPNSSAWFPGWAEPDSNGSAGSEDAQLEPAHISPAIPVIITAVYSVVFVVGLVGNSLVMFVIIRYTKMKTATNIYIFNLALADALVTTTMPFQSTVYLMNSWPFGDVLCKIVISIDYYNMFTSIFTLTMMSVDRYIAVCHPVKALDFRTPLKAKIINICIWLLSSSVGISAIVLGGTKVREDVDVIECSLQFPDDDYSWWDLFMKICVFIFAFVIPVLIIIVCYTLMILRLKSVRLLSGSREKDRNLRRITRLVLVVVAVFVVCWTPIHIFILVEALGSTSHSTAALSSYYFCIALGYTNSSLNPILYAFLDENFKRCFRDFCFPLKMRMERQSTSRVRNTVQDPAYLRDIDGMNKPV

[8] = biological target: 5-hydroxytryptamine receptor 6 (Homo sapiens) (UniProt P50406); assay: Binding affinity at 5HT6 receptor at 1 uM
Sequence of 5-hydroxytryptamine receptor 6 (Homo sapiens) (P50406 whole entry): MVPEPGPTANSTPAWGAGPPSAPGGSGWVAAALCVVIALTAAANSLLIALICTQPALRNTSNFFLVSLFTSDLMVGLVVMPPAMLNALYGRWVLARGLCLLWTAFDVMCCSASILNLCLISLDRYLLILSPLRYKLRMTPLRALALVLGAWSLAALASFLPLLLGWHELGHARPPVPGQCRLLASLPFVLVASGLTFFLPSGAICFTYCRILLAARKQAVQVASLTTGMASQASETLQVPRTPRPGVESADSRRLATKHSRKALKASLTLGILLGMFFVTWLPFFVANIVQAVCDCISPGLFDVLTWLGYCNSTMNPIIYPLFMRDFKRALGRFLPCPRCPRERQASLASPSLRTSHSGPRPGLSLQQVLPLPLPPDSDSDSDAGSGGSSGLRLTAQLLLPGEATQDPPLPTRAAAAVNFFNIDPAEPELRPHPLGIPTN

[9] = biological target: T5, 5-hydroxytryptamine receptor 3A (Homo sapiens) (UniProt P46098); assay: Binding affinity at 5HT3 receptor at 1 uM
T5 sequence (whole entry): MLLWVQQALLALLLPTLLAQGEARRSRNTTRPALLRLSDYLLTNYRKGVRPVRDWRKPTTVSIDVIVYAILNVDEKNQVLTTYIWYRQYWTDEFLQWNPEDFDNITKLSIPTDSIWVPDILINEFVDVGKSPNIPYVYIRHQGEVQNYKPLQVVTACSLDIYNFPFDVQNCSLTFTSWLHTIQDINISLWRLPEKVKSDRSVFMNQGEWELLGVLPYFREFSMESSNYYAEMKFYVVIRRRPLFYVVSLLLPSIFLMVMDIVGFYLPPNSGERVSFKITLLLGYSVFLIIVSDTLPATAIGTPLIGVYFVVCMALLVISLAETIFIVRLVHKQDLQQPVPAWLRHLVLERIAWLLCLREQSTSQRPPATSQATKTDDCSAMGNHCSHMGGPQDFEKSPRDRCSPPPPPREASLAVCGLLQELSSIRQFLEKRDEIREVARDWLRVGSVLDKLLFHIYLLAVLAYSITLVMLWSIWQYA

Homo sapiens = species on record: Homo sapiens; assay: Binding affinity at somatostatin receptor at 1 uM
[10] = biological target: Adenosine receptor A2a (Homo sapiens) (UniProt P29274); assay: Binding affinity at adenosine A2A receptor at 1 uM
Sequence of Adenosine receptor A2a (Homo sapiens) (P29274 whole entry): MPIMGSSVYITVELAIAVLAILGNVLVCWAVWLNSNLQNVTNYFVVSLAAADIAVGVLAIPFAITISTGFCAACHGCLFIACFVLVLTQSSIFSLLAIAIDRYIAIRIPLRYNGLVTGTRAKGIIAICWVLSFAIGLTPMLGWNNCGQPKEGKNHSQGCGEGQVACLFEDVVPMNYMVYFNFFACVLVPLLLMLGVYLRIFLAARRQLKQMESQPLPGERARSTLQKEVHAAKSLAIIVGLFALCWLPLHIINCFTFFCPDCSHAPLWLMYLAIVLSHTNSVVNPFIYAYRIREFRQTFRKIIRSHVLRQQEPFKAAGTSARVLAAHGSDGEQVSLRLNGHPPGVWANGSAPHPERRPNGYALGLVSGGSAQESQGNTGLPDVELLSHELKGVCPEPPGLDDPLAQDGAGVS

[11] = biological target: T6, 5-hydroxytryptamine receptor 1A (Homo sapiens) (UniProt P08908); assay: Binding affinity at 5HT1A receptor at 1 uM
T6 sequence (whole entry): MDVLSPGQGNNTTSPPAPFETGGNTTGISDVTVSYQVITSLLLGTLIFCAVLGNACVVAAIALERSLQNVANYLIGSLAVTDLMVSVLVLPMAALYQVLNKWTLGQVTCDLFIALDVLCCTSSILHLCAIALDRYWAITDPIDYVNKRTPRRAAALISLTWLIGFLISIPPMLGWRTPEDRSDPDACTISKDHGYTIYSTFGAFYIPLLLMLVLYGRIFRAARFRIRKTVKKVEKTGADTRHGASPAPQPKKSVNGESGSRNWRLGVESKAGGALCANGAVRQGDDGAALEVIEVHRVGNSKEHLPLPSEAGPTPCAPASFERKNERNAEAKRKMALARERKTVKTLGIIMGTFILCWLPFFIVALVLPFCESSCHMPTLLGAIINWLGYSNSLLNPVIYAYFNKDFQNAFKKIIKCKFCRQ

Measured: Activity

CSc1ccc(C2CN(C)Cc3cc(OCCCN4CCOCC4)ccc32)cc1 (racemic)
inactive: all assays above

CSc1ccc(C2CN(C)Cc3cc(OCCCN4CCC(F)CC4)ccc32)cc1 (racemic)
inactive: all assays above

COc1ccc([C@@H]2CN(C)Cc3cc(OCCCN4CCOC[C@@H]4C)ccc32)cc1
inactive: all assays above
